According to ChEMBL document CHEMBL1201862, “PubChem BioAssay data set” (2004):
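Results reflect a 48-hour exposure of cells in 96-well plates to compound at five concentrations. GI50 marks 50% less growth.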 Calls of active or inactive are those of the source. Cut-off read from the data, not from the text of the source: active = GI50 up to about 1.1 µM and inactive = higher.

What was measured:
Assay in all cases: inhibition of tumour cell growth, NCI panel, 48 h
[1] = tested on: 786-0
[2] = tested on: A549
[3] = tested on: ACHN
[4] = tested on: BT-549
[5] = tested on: CAKI-1
[6] = tested on: CCRF-CEM
[7] = tested on: COLO 205
[8] = tested on: DU-145
[9] = tested on: EKVX
[10] = tested on: HCC 2998
[11] = tested on: HCT-116
[12] = tested on: HCT-15
[13] = tested on: HL-60
[14] = tested on: HOP-62
[15] = tested on: HOP-92
[16] = tested on: HT-29
[17] = tested on: Hs-578T
[18] = tested on: IGROV-1
[19] = tested on: K562
[20] = tested on: KM12
[21] = tested on: LOX IMVI
[22] = tested on: M14
[23] = tested on: MCF7
[24] = tested on: MDA-MB-231
[25] = tested on: MDA-N
[26] = tested on: MOLT-4
[27] = tested on: Malme-3M
[28] = tested on: NCI-H226
[29] = tested on: NCI-H460
[30] = tested on: NCI-H522
[31] = tested on: NCI/ADR-RES
[32] = tested on: OVCAR-3
[33] = tested on: OVCAR-4
[34] = tested on: OVCAR-5
[35] = tested on: OVCAR-8
[36] = tested on: PC-3
[37] = tested on: RPMI-8226
[38] = tested on: RXF 393
[39] = tested on: SF-268
[40] = tested on: SF-295
[41] = tested on: SF-539
[42] = tested on: SK-MEL-28
[43] = tested on: SK-MEL-2
[44] = tested on: SK-MEL-5
[45] = tested on: SK-OV-3
[46] = tested on: SN12C
[47] = tested on: SNB-19
[48] = tested on: SNB-75
[49] = tested on: SR
[50] = tested on: SW-620
[51] = tested on: T47D
[52] = tested on: TK-10
[53] = tested on: UACC-257
[54] = tested on: UACC-62
[55] = tested on: UO-31
[56] = tested on: A498
[57] = tested on: MDA-MB-435
[58] = tested on: NCI-H23
[59] = tested on: U-251

With `NC(=O)c1cnc2sc3ccccc3n2c1=O` the GI50 [1] was > 100 µM (inactive), the GI50 [2] was 67.9 µM (inactive) and the GI50 [3] was > 100 µM (inactive). For the same molecule, the GI50 [4] was > 100 µM (inactive), the GI50 [5] was > 100 µM (inactive) and the GI50 [6] was > 100 µM (inactive). The GI50 [7] was > 100 µM (inactive), the GI50 [8] was > 100 µM (inactive) and the GI50 [9] was 21.9 µM (inactive). The GI50 [10] was > 100 µM (inactive), the GI50 [11] was > 100 µM (inactive) and the GI50 [12] was > 100 µM. The GI50 [13] was > 100 µM (inactive), the GI50 [14] was > 100 µM (inactive) and the GI50 [15] was 91.4 µM (inactive). The GI50 [16] was > 100 µM (inactive), the GI50 [17] was 26.4 µM (inactive) and the GI50 [18] was > 100 µM (inactive). The GI50 [19] was > 100 µM (inactive), the GI50 [20] was > 100 µM (inactive) and the GI50 [21] was > 100 µM (inactive). The GI50 [22] was > 100 µM (inactive), the GI50 [23] was > 100 µM (inactive) and the GI50 [24] was > 100 µM (inactive). The GI50 [25] was > 100 µM (inactive), the GI50 [26] was > 100 µM (inactive) and the GI50 [27] was > 100 µM (inactive). For the same molecule, the GI50 [28] was 34.5 µM (inactive), the GI50 [29] was > 100 µM (inactive) and the GI50 [30] was 74 µM (inactive). For the same molecule, the GI50 [31] was > 100 µM (inactive), the GI50 [32] was > 100 µM (inactive) and the GI50 [33] was > 100 µM (inactive). The GI50 [34] was > 100 µM (inactive), the GI50 [35] was > 100 µM (inactive) and the GI50 [36] was > 100 µM (inactive). For the same molecule, the GI50 [37] was > 100 µM (inactive), the GI50 [38] was > 100 µM (inactive) and the GI50 [39] was > 100 µM (inactive). The GI50 [40] was > 100 µM (inactive), the GI50 [41] was > 100 µM (inactive) and the GI50 [42] was > 100 µM (inactive). For the same molecule, the GI50 [43] was > 100 µM (inactive), the GI50 [44] was > 100 µM (inactive) and the GI50 [45] was > 100 µM (inactive). For the same molecule, the GI50 [46] was > 100 µM (inactive), the GI50 [47] was > 100 µM (inactive) and the GI50 [48] was > 100 µM (inactive). For the same molecule, the GI50 [49] was > 100 µM (inactive), the GI50 [50] was > 100 µM (inactive) and the GI50 [51] was > 100 µM (inactive). The GI50 [52] was > 100 µM (inactive), the GI50 [53] was > 100 µM (inactive) and the GI50 [54] was > 100 µM (inactive). For the same molecule, the GI50 [55] was 77.1 µM (inactive).

With `COC(=O)C1=C(O)C(C(=O)OC)[C@]2(O)[C@H](C(=O)OC)[C@H]1C[C@@H](c1ccccc1OC)[C@H]2C(=O)OC` (stereo partly specified) the GI50 [1] was 7.76 µM (inactive), the GI50 [56] was 3.53 µM (inactive) and the GI50 [2] was 3.85 µM (inactive). The GI50 [3] was 6.25 µM (inactive), the GI50 [4] was 3.15 µM (inactive) and the GI50 [5] was 3.99 µM (inactive). For the same molecule, the GI50 [6] was 3.56 µM (inactive), the GI50 [7] was 4.55 µM (inactive) and the GI50 [8] was 5.07 µM (inactive). The GI50 [9] was 8.07 µM (inactive), the GI50 [10] was 10.5 µM (inactive) and the GI50 [11] was 3.65 µM (inactive). For the same molecule, the GI50 [12] was 3.31 µM, the GI50 [13] was 3.29 µM (inactive) and the GI50 [14] was 12.3 µM (inactive). For the same molecule, the GI50 [15] was 2.34 µM (inactive), the GI50 [16] was 4.82 µM (inactive) and the GI50 [17] was 2.49 µM (inactive). The GI50 [18] was 3.33 µM (inactive), the GI50 [19] was 4.38 µM (inactive) and the GI50 [20] was 6.14 µM (inactive). The GI50 [21] was 2.79 µM (inactive), the GI50 [22] was 2.88 µM (inactive) and the GI50 [24] was 9.55 µM (inactive). For the same molecule, the GI50 [57] was 2.71 µM (inactive), the GI50 [25] was 1.98 µM (inactive) and the GI50 [26] was 3.59 µM (inactive). The GI50 [27] was 2.83 µM (inactive), the GI50 [28] was 5.4 µM (inactive) and the GI50 [58] was 3.52 µM (inactive). The GI50 [29] was 4.51 µM (inactive), the GI50 [30] was 1.84 µM (inactive) and the GI50 [31] was 2.61 µM (inactive). The GI50 [32] was 6.04 µM (inactive), the GI50 [33] was 4.95 µM (inactive) and the GI50 [34] was 6.08 µM (inactive). The GI50 [35] was 2.86 µM (inactive), the GI50 [36] was 6.03 µM (inactive) and the GI50 [37] was 2.17 µM (inactive). The GI50 [38] was 5.06 µM (inactive), the GI50 [39] was 4.53 µM (inactive) and the GI50 [40] was 6.08 µM (inactive). The GI50 [41] was 2.71 µM (inactive), the GI50 [42] was 7.87 µM (inactive) and the GI50 [43] was 6.03 µM (inactive). For the same molecule, the GI50 [44] was 3.64 µM (inactive), the GI50 [45] was 4.33 µM (inactive) and the GI50 [46] was 4.68 µM (inactive). The GI50 [47] was 5.24 µM (inactive), the GI50 [48] was 10.7 µM (inactive) and the GI50 [49] was 1.93 µM (inactive). For the same molecule, the GI50 [50] was 4.25 µM (inactive), the GI50 [51] was 10.4 µM (inactive) and the GI50 [52] was 14.1 µM (inactive). For the same molecule, the GI50 [59] was 6.56 µM (inactive), the GI50 [53] was 9.64 µM (inactive) and the GI50 [54] was 4.24 µM (inactive). For the same molecule, the GI50 [55] was 10 µM (inactive).

In the case of `Nc1cccc(CCN2CCN(CCCc3ccccc3)CC2)c1`, the GI50 [1] is reported as 18.2 µM (inactive), the GI50 [56] is reported as 47.5 µM (inactive) and the GI50 [2] is reported as 34.4 µM (inactive). The GI50 [3] was > 100 µM (inactive), the GI50 [4] was 52.5 µM (inactive) and the GI50 [5] was 53.3 µM (inactive). The GI50 [6] was 25.8 µM (inactive), the GI50 [7] was 19.5 µM (inactive) and the GI50 [8] was 55.1 µM (inactive). The GI50 [9] was > 100 µM (inactive), the GI50 [10] was 15 µM (inactive) and the GI50 [11] was 17.6 µM (inactive). For the same molecule, the GI50 [12] was 18 µM, the GI50 [13] was 17.2 µM (inactive) and the GI50 [14] was 36.5 µM (inactive). For the same molecule, the GI50 [15] was 4.11 µM (inactive), the GI50 [16] was 13.7 µM (inactive) and the GI50 [17] was 25.1 µM (inactive). For the same molecule, the GI50 [18] was 37.3 µM (inactive), the GI50 [19] was 12.9 µM (inactive) and the GI50 [20] was 24.9 µM (inactive). The GI50 [21] was 18.1 µM (inactive), the GI50 [22] was 17.6 µM (inactive) and the GI50 [23] was 19.2 µM (inactive). For the same molecule, the GI50 [24] was 36.5 µM (inactive), the GI50 [57] was 18.6 µM (inactive) and the GI50 [26] was 30.5 µM (inactive). For the same molecule, the GI50 [27] was 21 µM (inactive), the GI50 [28] was 70 µM (inactive) and the GI50 [58] was 50.2 µM (inactive). The GI50 [29] was 25.4 µM (inactive), the GI50 [30] was 16.5 µM (inactive) and the GI50 [31] was > 100 µM (inactive). The GI50 [32] was 19.4 µM (inactive), the GI50 [33] was 39.9 µM (inactive) and the GI50 [34] was > 100 µM (inactive). The GI50 [35] was 22.6 µM (inactive), the GI50 [36] was 70.1 µM (inactive) and the GI50 [37] was 33.2 µM (inactive). For the same molecule, the GI50 [38] was 21.2 µM (inactive), the GI50 [39] was 58.2 µM (inactive) and the GI50 [40] was 24.8 µM (inactive). For the same molecule, the GI50 [41] was 22.2 µM (inactive), the GI50 [42] was 27.5 µM (inactive) and the GI50 [43] was > 100 µM (inactive). For the same molecule, the GI50 [44] was 20.1 µM (inactive), the GI50 [45] was > 100 µM (inactive) and the GI50 [46] was 95.3 µM (inactive). The GI50 [47] was > 100 µM (inactive), the GI50 [48] was > 100 µM (inactive) and the GI50 [49] was 19.2 µM (inactive). For the same molecule, the GI50 [50] was 30.5 µM (inactive), the GI50 [51] was 20.3 µM (inactive) and the GI50 [52] was 74.1 µM (inactive). For the same molecule, the GI50 [59] was 46.2 µM (inactive), the GI50 [53] was 24.2 µM (inactive) and the GI50 [54] was 21.8 µM (inactive). For the same molecule, the GI50 [55] was 26.7 µM (inactive).
